For one data set, the system named is AS19 E. coli. As to the kind of experiment: Bacterial toxicity (OD630) in the AraTM assay. The class given is cell-based. Conditions: compared with Div17E5.
The target of a further data set is T1, p75^NTR TMD (Homo sapiens, UniProt P08138).
T1 sequence (P08138 250-275 limits assumed): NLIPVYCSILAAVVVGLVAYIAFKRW
The data set is described as follows: AraTM assay, wild-type p75NTR TMD (GFP/OD630). The class given is cell-based. Conditions: structure-activity comparison.

The subject of data set [1] is A875 NT cells. As to the kind of experiment: Wound healing cell motility assay, A875 NT. The class given is cell-based, human. Conditions: for wound healing assay, comparison of Div17E5, MS_18 and MS_63: 10 µM; for Wound area (Fold), Mean / Wound area (Fold), individual replicates: 10uM. On the procedure:
For wound healing assay, cells were grown until confluency and subjected to a wound across the cell mono-layer. Cells were then incubated with serum-free media either with DMSO or a small molecule (with or without 5 µM Q_VD_poH) and imaged at specific time-points. Cell migration is reflected as fold change in wound area over time.

A further data set deals with melanoma tumor. Also on record: method as in Goh et al, 2018. Conditions: ref Goh et al, 2018; cited from earlier work.
Data set [2] concerns neurons and melanoma cells. The arrangement: method as in Goh et al, 2018. Conditions: dependent on p75NTR and JNK activity; ref Goh et al, 2018; cited from earlier work.
For data set [3], the system named is A875 shp75 cells. The data set is described as follows: Boyden chamber chemotaxis assay, A875 shp75. The class given is cell-based, human. Conditions: NGF as chemoattractant.
In data set [4] the test system is A875 NT cells. As to the kind of experiment: Filopodia per cell (phalloidin staining), A875 NT. The class given is cell-based, human. On the procedure: (§1) For assessment of actin filaments, A875 cells were plated on glass coverslips in 24-well plate at a confluency of 3 × 10^4 cells/well. One day after plating, the cells were treated with 1 μM or 5 μM Np75-4A22 and NGF (100 ng/ml) or PBS for 24 h. Cells were fixed in 4% paraformaldehyde, permeabilized in 0.1% Triton-X-100, stained with Phalloidin-iFluor 488 (Abcam) at 1:2000 dilution and DAPI for 1 h. Coverslips were mounted and visualized in a laser confocal microscope.

Data set [5] deals with A875 shp75 cells. The data set is described as follows: Filopodia per cell (phalloidin staining), A875 shp75. Conditions: for filopodia per cell (well mean): A875 shp75 cells, wells 1-4. The class given is cell-based, human. On the procedure: as §1
Data set [6] deals with T2, fascin/p75^NTR interaction (Homo sapiens, UniProt P08138).
T2 construct: endogenous in cells; host or cells: A875-NT (and A875 sh-p75NTR knock-down control)
T2 sequence (P08138 29-427): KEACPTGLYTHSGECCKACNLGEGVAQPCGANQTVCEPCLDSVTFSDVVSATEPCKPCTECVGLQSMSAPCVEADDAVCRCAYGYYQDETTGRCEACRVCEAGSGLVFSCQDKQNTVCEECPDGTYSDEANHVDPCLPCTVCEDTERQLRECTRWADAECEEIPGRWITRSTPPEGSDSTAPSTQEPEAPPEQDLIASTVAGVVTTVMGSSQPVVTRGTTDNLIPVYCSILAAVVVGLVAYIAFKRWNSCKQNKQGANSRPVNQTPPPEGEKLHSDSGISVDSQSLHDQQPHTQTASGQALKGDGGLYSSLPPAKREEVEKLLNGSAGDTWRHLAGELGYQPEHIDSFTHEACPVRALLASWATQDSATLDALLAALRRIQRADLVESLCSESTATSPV
As to the kind of experiment: Co-immunoprecipitation of fascin with p75NTR in A875 cells. Conditions: NGF, experiments 1-3. The class given is cell-based. On the procedure: For co-immunoprecipitation analysis of p75^NTR/fascin interactions, A875 sh-p75^NTR and A875-NT cells were plated in a 10 cm tissue culture dish at a confluency of 3 × 10^6 cells/dish in normal growth media. Twenty-four hours after plating, the cells were treated with 1 μM 4A22 and NGF (100 ng/ml) for 12 h prior to harvest and lysis in lysis buffer (50 mM Tris/HCl pH 7.5, 1 mM EDTA, 270 mM Sucrose, 1% (v/v) Triton X-100, 0.1% (v/v) 2-mercaptoethanol and 60 mM n-Octyl-β-D glucopyranoside) containing protease inhibitor cocktail. The cellular extracts were then centrifuged at 4 °C top speed on a benchtop centrifuge for 1 min and the supernatant was collected. For immunoprecipitation, A875 cell extracts were incubated for 16 h at 4 °C on a rotating wheel with 0.8 μg of anti-p75^NTR antibody (ANT-007, Alomone) and then incubated with Sepharose protein-G beads (GE Healthcare). The beads were collected by brief centrifugation (2 min, 2500 rpm, 4 °C), washed three times with 1 ml of Wash Buffer (with composition same as the lysis buffer). After the last wash, pelleted beads were aspirated off the wash buffer followed by addition of Laemmli sample buffer and analysis by SDS–PAGE followed by Western Blot using anti-fascin antibody (MA5-11483, Invitrogen).

Data set [7] deals with fascin in Triton-insoluble fraction of A875 NT cells. The data set is described as follows: Detergent-insolubility assay of fascin, A875 NT. The class given is cell-based, human. Conditions: NGF; insoluble/total fascin, n1-n3. On the procedure:
A single cell suspension was obtained by trypsinization followed by centrifugation and detergent extraction with lysis buffer (with 0.5% Triton X-100). Then, immediately centrifuged at 8700 g for 3 min. The resulting pellets (containing the Triton X-100-resistant proteins) were suspended in lysis buffer without Triton X-100. In parallel, cells were centrifuged and then directly suspended in lysis buffer. The Triton X-100- resistant proteins and total cell lysates were analyzed by SDS–PAGE and Western blotting with anti-fascin antibody.

The test system of a further data set is WM115 cells. The data set is described as follows: Boyden chamber chemotaxis assay, WM115. Conditions: 100 ng/ml NGF. The class given is cell-based, human. On the procedure:
For Boyden chamber assay, Corning® BioCoat™ Matrigel® Invasion Chambers 8.0 µm PET Membrane were used (cat. no. 354480). A875 NT or WM115 cells were serum-starved for 16 h and then seeded at 60,000 cells per well in serum-free media under different conditions, including DMSO (vehicle) or small molecules Div17E5 or Np75-4A22 at different concentrations to the top chamber of the Matrigel-coated trans-well chamber. The pan-caspase inhibitor Q_VD_poH (at 5 µM) was also introduced in the top chamber in some experiments. Two different chemoattractants, NGF (at 50 ng/ml or 100 ng/ml as indicated) or 10% FBS were added to the bottom chamber. Assays were carried out for 8 h after which filters were fixed in 4% PFA and stained with DAPI. Cells that had remained on the top of the filter were gently scrapped away with a cotton tip. The filter lower side was imaged on an inverted fluorescence microscope and counted using ImageJ software (NIH).

Where “and” joins values, the source holds several entries; their conditions need not be identical. Equal values may be shown once.

With `COc1ccc(-c2cncc(Nc3ccc([N+](=O)[O-])cc3)n2)cc1` [MS_18], in the data set on AS19 E. coli, the “bacterial toxicity, as assessed by OD630” value is listed as “somewhat lower bacterial toxicity”. Moreover, the “activity in the AraTM assay” value at p75^NTR TMD was “MS_18 more potent than Np75-3A01, -3A02”. Moreover, in the data set on A875 NT cells [1], the “wound healing assay, comparison of Div17E5, MS_18 and MS_63” value is “lower potency”. The “Wound area (Fold), Mean” value with A875 NT cells [1] (0 hours) is on record as 1 Fold; in the data set on A875 NT cells [1] (3 hours), 0.941 Fold; with A875 NT cells [1] (6 hours) it was 0.91 Fold; in the data set on A875 NT cells [1] (9 hours), 0.867 Fold; with A875 NT cells [1] (12 hours), 0.851 Fold; in the data set on A875 NT cells [1] (15 hours), 0.791 Fold. Besides, the “Wound area (Fold), Mean” value in the data set on A875 NT cells [1] (18 hours) worked out at 0.817 Fold; in the data set on A875 NT cells [1] (21 hours), 0.775 Fold; in the data set on A875 NT cells [1] (24 hours) it was 0.737 Fold. For the same molecule, the “Wound area (Fold), individual replicates” value was 1.000 Fold in the data set with A875 NT cells [1] (0 hours); 0.922 Fold and 0.959 Fold with A875 NT cells [1] (3 hours); 0.89 Fold and 0.929 Fold with A875 NT cells [1] (6 hours); 0.834 Fold and 0.901 Fold with A875 NT cells [1] (9 hours); 0.803 Fold and 0.899 Fold in the data set on A875 NT cells [1] (12 hours); 0.728 Fold and 0.855 Fold in the data set on A875 NT cells [1] (15 hours). Further, the “Wound area (Fold), individual replicates” value in the data set with A875 NT cells [1] (18 hours) was 0.79 Fold and 0.845 Fold; in the data set on A875 NT cells [1] (21 hours), 0.722 Fold and 0.827 Fold; in the data set on A875 NT cells [1] (24 hours) it was 0.692 Fold and 0.783 Fold.

On to `CN(C)c1cccc(-c2cncc(Nc3ccc(Br)c(Cl)c3Cl)n2)c1` [MS_63], for which the “bacterial toxicity, as assessed by OD630” value with AS19 E. coli is listed as “somewhat lower bacterial toxicity”. The “wound healing assay, comparison of Div17E5, MS_18 and MS_63” value in the data set with A875 NT cells [1] was “lower potency”. The “Wound area (Fold), Mean” value was 1 Fold in the data set on A875 NT cells [1] (0 hours); 0.912 Fold in the data set on A875 NT cells [1] (3 hours); 0.874 Fold in the data set with A875 NT cells [1] (6 hours); 0.827 Fold with A875 NT cells [1] (9 hours); 0.792 Fold in the data set with A875 NT cells [1] (12 hours); 0.762 Fold with A875 NT cells [1] (15 hours). For the same molecule, the “Wound area (Fold), Mean” value with A875 NT cells [1] (18 hours) is recorded as 0.73 Fold; in the data set on A875 NT cells [1] (21 hours) it was 0.71 Fold; in the data set with A875 NT cells [1] (24 hours), 0.697 Fold. Also, the “Wound area (Fold), individual replicates” value was 1.000 Fold in the data set with A875 NT cells [1] (0 hours); 0.916 Fold and 0.908 Fold in the data set on A875 NT cells [1] (3 hours); 0.869 Fold and 0.879 Fold with A875 NT cells [1] (6 hours); 0.786 Fold and 0.869 Fold in the data set on A875 NT cells [1] (9 hours); 0.755 Fold and 0.828 Fold in the data set with A875 NT cells [1] (12 hours); 0.728 Fold and 0.796 Fold in the data set with A875 NT cells [1] (15 hours). The “Wound area (Fold), individual replicates” value is 0.704 Fold and 0.756 Fold with A875 NT cells [1] (18 hours); 0.683 Fold and 0.737 Fold with A875 NT cells [1] (21 hours); 0.666 Fold and 0.729 Fold with A875 NT cells [1] (24 hours).

With `O=C(/C=C/c1cccnc1)c1ccccc1O` [NSC49652], the melanoma tumor growth entry with melanoma tumor is “inhibited melanoma tumor growth”. The apoptotic cell death entry in [2] is on record as “triggered apoptotic cell death”.

With “NGF: nerve growth factor, neurotrophin ligand of p75NTR, used as chemoattractant”, the “Fold change (invading cells), n1-n4” value in the data set with A875 shp75 cells [3] is 0.89 Fold and 1.06 Fold and 1.42 Fold and 1.05 Fold. For the same molecule, the “Fold change (invading cells), Mean” value in the data set with A875 shp75 cells [3] (N=4) stood at 1.110 Fold. Further, the “Filopodia per cell, mean of experiment” value with A875 NT cells [4] (100 ng/ml NGF alone, A875 NT, EXP1-EXP3) is 50.0863 and 44.7441 and 46.2718. Besides, the “Filopodia per cell, mean of three experiments” value in the data set with A875 NT cells [4] (100 ng/ml NGF alone, A875 NT, mean of EXP1-3) was 47.0341. The “Filopodia per cell, mean of well” value in the data set on A875 NT cells [4] (100 ng/ml NGF alone, A875 NT, well mean) is 36.2857 and 52.7857 and 51.5714 and 47.2222 and 38.6667 and 55.1429 and 44.0556. Moreover, the “Filopodia per cell, mean of the well” value in the data set on A875 NT cells [4] (100 ng/ml NGF, EXP1 NT, well mean) is 59.8571 and 51.381 and 46.8571 and 42.25. In the data set with A875 shp75 cells [5] (A875 shp75, 100ng/ml NGF), the “filopodia per cell (mean of 3 experiments)” value is 33.6544. The “filopodia per cell (mean of one experiment)” value with A875 shp75 cells [5] (A875 shp75, 100ng/ml NGF, EXP1-EXP3) was 32.2411 and 36.1597 and 32.5625. Further, the “filopodia per cell (well mean)” value in the data set with A875 shp75 cells [5] (EXP1, 100 ng/ml NGF) is 25.2143 and 35.5 and 37.1667 and 31.0833; in the data set on A875 shp75 cells [5] (EXP2, 100 ng/ml NGF), 37 and 30.3889 and 32.6667 and 44.5833. In addition, the FASCIN/P75 in [6] was 0.1943 and 0.2161 and 0.2851. Besides, in data set [6] (relative to UT), the “FASCIN/P75 Fold change” value was 1.97 and 2.116 and 1.36. Also, the “Fold change (compared to untreated cells)” value in [7] is 3.421 and 2.292 and 2.425. Moreover, the “values normalized to vehicle, mean (Figure 6E)” value in the data set with WM115 cells (mean of EXP1-3) turned out to be 1.5693. Further, in the data set on WM115 cells (single experiments EXP1-3), the “values normalized to vehicle (Figure 6E)” value was 1.456 and 1.588 and 1.664.

Values taken from article PMC12514245, “Impaired migration and lung invasion of human melanoma by a novel small molecule targeting the transmembrane domain of death receptor p75^NTR” (EMBO Molecular Medicine, 2025).
